Data taken from patent publication US20210380606A1, “5-AZAINDAZOLE DERIVATIVES AS ADENOSINE RECEPTOR ANTAGONISTS” (Merck Patent GmbH, priority 2018, published 2021).
pIC50: −log10 of the molar value.

Key:
[1] = biological target: T1, human A2A receptors (Homo sapiens, UniProt P29274); experiment: Functional human A2A receptor activity, recombinant HEK293 cells, cAMP (HTRF); type: cell-based; settings: read-out: A2A (Category)
T1 construct: expressed in transfected cells; host or cells: HEK293
Procedure: (§1) The functional activities of human A2A and A2B receptors were determined by quantification of cAMP, being the second messenger for adenosine receptors.
(§2) After a 15 min incubation, HTRF reagents (cAMP dynamic 2, Cis Bio) were added and the cellular cAMP levels were determined using the ENVISION (Perkin Elmer) plate reader.

[2] = biological target: T2, human A2B receptors (Homo sapiens, UniProt P29275); experiment: Functional human A2B receptor activity, recombinant HEK293 cells, cAMP (HTRF); type: cell-based; settings: read-out: A2B (Category)
T2 construct: expressed in transfected cells; host or cells: HEK293
T2 sequence (P29275 1-332): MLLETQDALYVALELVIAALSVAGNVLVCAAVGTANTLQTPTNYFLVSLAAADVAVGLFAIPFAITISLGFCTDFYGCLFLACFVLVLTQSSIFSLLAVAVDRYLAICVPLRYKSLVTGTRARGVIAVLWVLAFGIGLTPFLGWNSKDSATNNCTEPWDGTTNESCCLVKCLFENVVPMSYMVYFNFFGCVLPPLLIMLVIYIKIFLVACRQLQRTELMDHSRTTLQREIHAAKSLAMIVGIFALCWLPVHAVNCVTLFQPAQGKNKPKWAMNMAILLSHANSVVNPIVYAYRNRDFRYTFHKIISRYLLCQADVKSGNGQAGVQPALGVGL
Procedure: as §1, §2

T1 sequence (P29274 whole entry): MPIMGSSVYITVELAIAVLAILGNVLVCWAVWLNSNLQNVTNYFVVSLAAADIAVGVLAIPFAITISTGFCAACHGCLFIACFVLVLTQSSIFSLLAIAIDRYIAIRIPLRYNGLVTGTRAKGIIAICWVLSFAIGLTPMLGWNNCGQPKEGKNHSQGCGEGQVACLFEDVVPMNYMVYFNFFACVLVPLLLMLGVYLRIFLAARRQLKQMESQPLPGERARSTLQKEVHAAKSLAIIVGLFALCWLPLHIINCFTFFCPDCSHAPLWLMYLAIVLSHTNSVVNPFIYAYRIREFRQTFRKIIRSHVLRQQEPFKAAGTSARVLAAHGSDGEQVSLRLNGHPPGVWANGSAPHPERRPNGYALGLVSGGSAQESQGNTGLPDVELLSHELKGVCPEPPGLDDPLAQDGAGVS

Row | SMILES | pIC50 [1] | pIC50 [2]
1 | O=C(c1cc2c(cn1)c(-c1cnc3ccc(F)cn13)nn2CC(F)(F)F)N1[C@@H]2CC[C@H]1C[C@@H](O)C2 [Compound 86, [3-(6-fluoroimidazo[1,2-a]pyridin-3-yl)-1-(2,2,2-trifluoroethyl)pyrazolo[4,3-c]pyridin-6-yl]-(3-endo-hydroxy-8-azabicyclo[3.2.1]octan-8-yl)methanone] | > 7.00 | > 7.00
2 | O=C(c1cc2c(cn1)c(-c1cnc3ccccn13)nn2CC(F)(F)F)N1[C@@H]2CC[C@H]1C[C@@H](O)C2 [Compound 87, [3-(imidazo[1,2-a]pyridin-3-yl)-1-(2,2,2-trifluoroethyl)pyrazolo[4,3-c]pyridin-6-yl]-(3-endo-hydroxy-8-azabicyclo[3.2.1]octan-8-yl)methanone] | > 7.00 | > 6.00
3 | O=C(c1cc2c(cn1)c(-c1cnc3ccc(O)cn13)nn2CC(F)(F)F)N1[C@@H]2CC[C@H]1C[C@@H](O)C2 [Compound 88, (3-endo-hydroxy-8-azabicyclo[3.2.1]octan-8-yl)-[3-(6-hydroxyimidazo[1,2-a]pyridin-3-yl)-1-(2,2,2-trifluoroethyl)pyrazolo[4,3-c]pyridin-6-yl]methanone] | > 7.00 | > 6.00
4 | O=C(c1cc2c(cn1)c(-c1cnn3ccccc13)nn2CC(F)(F)F)N1CCCCCC1 [Compound 89, Azepan-1-yl-[3-pyrazolo[1,5-a]pyridin-3-yl-1-(2,2,2-trifluoro-ethyl)-1H-pyrazolo[4,3-c]pyridin-6-yl]-methanone hydrochoride] | > 7.00 | > 7.00
5 | O=C(c1cc2c(cn1)c(-c1coc3ccccc13)nn2CC(F)(F)F)N1CCCCCC1 [Compound 90, Azepan-1-yl-[3-benzofuran-3-yl-1-(2,2,2-trifluoro-ethyl)-1H-pyrazolo[4,3-c]pyridin-6-yl]-methanone] | > 7.00 | > 7.00
6 | O=C(c1cc2c(cn1)c(-c1c[nH]c3ccccc13)nn2CC(F)(F)F)N1CCCCCC1 [Compound 91, Azepan-1-yl-[3-(1H-indol-3-yl)-1-(2,2,2-trifluoro-ethyl)-1H-pyrazolo[4,3-c]pyridin-6-yl]-methanone] | > 7.00 | > 7.00
7 | O=C(c1cc2c(cn1)c(-c1c[nH]c3ncccc13)nn2CC(F)(F)F)N1CCCCCC1 [Compound 92, Azepan-1-yl-[3-(1H-pyrrolo[2,3-b]pyridin-3-yl)-1-(2,2,2-trifluoro-ethyl)-1H-pyrazolo[4,3-c]pyridin-6-yl]-methanone] | > 7.00 | > 6.00
8 | O=C(c1cc2c(cn1)c(-c1coc3ccccc13)nn2CC(F)(F)F)N1CCCOCC1 [Compound 94, [3-Benzofuran-3-yl-1-(2,2,2-trifluoro-ethyl)-1H-pyrazolo[4,3-c]pyridine-6-yl]-1,4-oxazepan-4-yl-methanone] | > 7.00 | > 7.00
9 | O=C(c1cc2c(cn1)c(-c1cnn3ccccc13)nn2CC(F)(F)F)N1CCCOCC1 [Compound 95, 1,4-Oxazepan-4-yl-[3-pyrazolo[1,5-a]pyridine-3-yl-1-(2,2,2-trifluoro-ethyl)-1H-pyrazolo[4,3-c]pyridine-6-yl]-methanone] | > 7.00 | > 6.00
10 | O=C(c1cc2c(cn1)c(-c1c[nH]c3ccccc13)nn2CC(F)(F)F)N1CCCOCC1 [Compound 96, [3-(1H-Indol-3-yl)-1-(2,2,2-trifluoro-ethyl)-1H-pyrazolo[4,3-c]pyridine-6-yl]-1,4-oxazepan-4-yl-methanone] | > 7.00 | > 6.00
11 | O=C(c1cc2c(cn1)c(-c1cnn3ccccc13)nn2CC(F)(F)F)N1CC2CCC(C1)O2 [Compound 99, (8-Oxa-3-aza-bicyclo[3.2.1]oct-3-yl)-[3-pyrazolo[1,5-a]pyridin-3-yl-1-(2,2,2-trifluoro-ethyl)-1H-pyrazolo[4,3-c]pyridin-6-yl]-methanone] | > 7.00 | > 6.00
12 | O=C(c1cc2c(cn1)c(-c1c[nH]c3ccccc13)nn2CC(F)(F)F)N1[C@@H]2CC[C@H]1C[C@@H](O)C2 [Compound 112, (3-endo-hydroxy-8-azabicyclo[3.2.1]octan-8-yl)-[3-(1H-indol-3-yl)-1-(2,2,2-trifluoroethyl)pyrazolo[4,3-c]pyridin-6-yl]methanone] | > 7.00 | > 7.00
13 | O=C(c1cc2c(cn1)c(-c1cnn3ccccc13)nn2CC(F)(F)F)N1[C@@H]2CC[C@H]1C[C@@H](O)C2 [Compound 113, (3-endo-hydroxy-8-azabicyclo[3.2.1]octan-8-yl)-[3-pyrazolo[1,5-a]pyridin-3-yl-1-(2,2,2-trifluoroethyl)pyrazolo[4,3-c]pyridin-6-yl]methanone] | > 7.00 | > 7.00

More lines, now with the values ahead:

Row | pIC50 [1] | pIC50 [2] | SMILES
14 | > 7.00 | > 7.00 | O=C(c1cc2c(cn1)c(-c1coc3ccccc13)nn2CC(F)(F)F)N1CC2CCC(C1)O2 [Compound 100, [3-Benzofuran-3-yl-1-(2,2,2-trifluoro-ethyl)-1H-pyrazolo[4,3-c]pyridin-6-yl]-(8-oxa-3-aza-bicyclo[3.2.1]oct-3-yl)-methanone]
15 | > 7.00 | > 7.00 | O=C(c1cc2c(cn1)c(-c1coc3ccccc13)nn2CC(F)(F)F)N1CC2CCC(C2)C1 [Compound 101, (3-Aza-bicyclo[3.2.1]oct-3-yl)-[3-benzofuran-3-yl-1-(2,2,2-trifluoro-ethyl)-1H-pyrazolo[4,3-c]pyridin-6-yl]-methanone]
16 | > 7.00 | > 7.00 | O=C(c1cc2c(cn1)c(-c1cnn3ccccc13)nn2CC(F)(F)F)N1CC2CCC(C2)C1 [Compound 102, (3-Aza-bicyclo[3.2.1]oct-3-yl)-[3-pyrazolo[1,5-a]pyridin-3-yl-1-(2,2,2-trifluoro-ethyl)-1H-pyrazolo[4,3-c]pyridin-6-yl]-methanone]
17 | > 7.00 | > 6.00 | O=C(c1cc2c(cn1)c(-c1coc3ccccc13)nn2CC(F)F)N1CCCOCC1 [Compound 103, [3-Benzofuran-3-yl-1-(2,2-difluoro-ethyl)-1H-pyrazolo[4,3-c]pyridin-6-yl]-1,4-oxazepan-4-yl-methanone]
18 | > 7.00 | > 6.00 | O=C(c1cc2c(cn1)c(-c1coc3ccccc13)nn2CCF)N1CCCOCC1 [Compound 104, [3-Benzofuran-3-yl-1-(2-fluoro-ethyl)-1H-pyrazolo[4,3-c]pyridin-6-yl]-1,4-oxazepan-4-yl-methanone]
19 | > 7.00 | > 6.00 | NC(=O)Cn1nc(-c2coc3ccccc23)c2cnc(C(=O)N3CCCOCC3)cc21 [Compound 105, 2-[3-Benzofuran-3-yl-6-(1,4-oxazepane-4-carbonyl)-pyrazolo[4,3-c]pyridin-1-yl]-acetamide]
20 | > 7.00 | > 6.00 | CCCn1nc(-c2coc3ccccc23)c2cnc(C(=O)N3CCCOCC3)cc21 [Compound 106, (3-Benzofuran-3-yl-1-propyl-1H-pyrazolo[4,3-c]pyridin-6-yl)-1,4-oxazepan-4-yl-methanone]
21 | > 7.00 | > 7.00 | CS(=O)(=O)Cn1nc(-c2coc3ccccc23)c2cnc(C(=O)N3CC4CCC(C3)O4)cc21 [Compound 107, (3-Benzofuran-3-yl-1-methanesulfonylmethyl-1H-pyrazolo[4,3-c]pyridine-6-yl)-(8-oxa-3-aza-bicyclo[3.2.1]oct-3-yl)-methanone]
22 | > 7.00 | > 6.00 | CS(=O)(=O)Cn1nc(-c2cnn3ccccc23)c2cnc(C(=O)N3CC4CCC(C3)O4)cc21 [Compound 108, (1-Methanesulfonylmethyl-3-pyrazolo[1,5-a]pyridine-3-yl-1H-pyrazolo[4,3-c]pyridine-6-yl)-(8-oxa-3-aza-bicyclo[3.2.1]oct-3-yl)-methanone]
23 | > 7.00 | > 7.00 | CS(=O)(=O)Cn1nc(-c2coc3ccc(F)cc23)c2cnc(C(=O)N3CCCOCC3)cc21 [Compound 110, [3-(5-fluorobenzofuran-3-yl)-1-(methylsulfonylmethyl)pyrazolo[4,3-c]pyridin-6-yl]-(1,4-oxazepan-4-yl)methanone]
24 | > 7.00 | > 7.00 | CS(=O)(=O)Cn1nc(-c2coc3ccc(F)cc23)c2cnc(C(=O)N3CC4CCC(C3)O4)cc21 [Compound 111, [3-(5-fluorobenzofuran-3-yl)-1-(methylsulfonylmethyl)pyrazolo[4,3-c]-pyridin-6-yl]-(8-oxa-3-azabicyclo[3.2.1]octan-3-yl)methanone]
25 | > 7.00 | > 7.00 | O=C(c1cc2c(cn1)c(-c1cnn3ccccc13)nn2CC(F)(F)F)N1CCC(O)CC1 [Compound 114, (4-hydroxy-1-piperidyl)-[3-pyrazolo[1,5-a]pyridin-3-yl-1-(2,2,2-trifluoroethyl)pyrazolo[4,3-c]pyridin-6-yl]methanone]
26 | > 7.00 | > 7.00 | O=C(c1cc2c(cn1)c(-c1coc3ccc(F)cc13)nn2CC(F)(F)F)N1CCC(O)CC1 [Compound 115, [3-(5-fluorobenzofuran-3-yl)-1-(2,2,2-trifluoroethyl)pyrazolo[4,3-c]pyridin-6-yl]-(4-hydroxy-1-piperidyl)methanone]
27 | > 7.00 | > 7.00 | CC1(O)CCN(C(=O)c2cc3c(cn2)c(-c2coc4ccc(F)cc24)nn3CC(F)(F)F)CC1 [Compound 116, [3-(5-fluorobenzofuran-3-yl)-1-(2,2,2-trifluoroethyl)pyrazolo[4,3-c]pyridin-6-yl]-(4-hydroxy-4-methyl-1-piperidyl)methanone]
